Consider 1 molecule from US20160129005A1, “ADENINE DERIVATIVES HAVING IMMUNOMODULATING ANTI-INFLAMMATORY AND ANALGESIC ACTIVITY” (MEDESTEA RESEARCH & PRODUCTION S.p.A., priority 2011, published 2016).

SMILES strings stand for the structures.

In one assay the test system is female NOD mice. Briefly: Type 1 diabetes spontaneous model. Type of assay: in vivo, mouse. Conditions: 0.25 mg intravenously 5 days every two weeks from 11 weeks of age; at the 28th week; carriers 7 out of 14. From the text:
NOD (“non-obese diabetic”) mice represent the spontaneous murine model of type 1 diabetes (Adorini et al., 2002). The loss of metabolic control characterized by hyperglycaemia and glycosuria, which defines the disease clinically, is preceded by a long phase called pre-diabetes, during which the response to specific autoantigens of the beta cells of the pancreas develops subclinically, but progressively. In the NOD mice, the disease begins clinically around the 14th week of age when the infiltrating inflammatory cells invade the islets and develop an aggressive insulitis, which leads to destruction of the beta cells and causes hyperglycaemia (Anderson and Bluestone, 2005). The autoreactive CD4+ and CD8+ T cells play a fundamental role in the pathogenesis of type 1 diabetes.
We treated female NOD mice at 11 weeks of age with 0.25 mg […] or carriers intravenously for 5 days every two weeks and monitored glycaemia every week. Only one out of 8 mice treated with […] developed diabetes at the 28th week of age, whereas 7 out of 14 mice treated with carriers developed diabetes or died starting from the 14th week of age (FIG. 32).

Assay [1] deals with mice. The assay can be described thus: Visceral pain: acetic acid model. The note with it: 4 mg/kg intraperitoneally; FIG. 20. The assay is classed as in vivo, mouse. The protocol: We verified the effect of […] on a model of visceral pain. 30 mice were divided into two groups of 15: one group received […] 4 mg/kg intraperitoneally while the other group was treated with only the pharmaceutical vehicle. After the pre-treatment injection, 0.6% acetic acid was administered as a bolus injection 0.3 ml IP. The mice were put in individual observation chambers for assessing, after a period of 20 minutes, the number of contractions induced in each animal following injection of acetic acid. The count started 5 minutes after administration of acetic acid.

The subject of another assay is Sprague-Dawley (SD) rats. Briefly: Renal ischaemia/reperfusion injury. Type of assay: in vivo, rat. From the text:
Ischaemia is an acute pathologic event in which there is reduction in blood supply with resultant injury or dysfunction of the affected tissue. Currently, the obstructed blood vessel is cleared by direct intervention. The resumption of normal circulation after a period of hypoxia causes quite considerable tissue injury, however, with fibrotic results that undermine the functionality of the affected organ. […] We wanted to check whether […] could reduce the injury due to reperfusion and to do so we used a model of renal ischaemia. The model envisages creation of an ischaemic event and then verification of the injury following treatment with […] or with the vehicle.
The experiment was conducted on Sprague-Dawley (SD) rats of 250-300 g divided into three groups. The first group, the […], only underwent an incision, which was kept open for 30 minutes, without ischaemic injury. The other two were pretreated, 30 minutes before undergoing the intervention, with intraperitoneal administration of vehicle (group 2) or of […] (group 3) 10 mg/kg. […]
The kidneys were sectioned for histologic analysis in double-blind conditions. The percentages of the tissue changes observed were counted using a 5-point semiquantitative scale, defined for assessing necrosis and cellular loss: 0=normal kidney; 0.5=<10%; 1=10-25%; 2=25-50%; 3=50-75%; 4=75-100%.

Another assay deals with male Sprague Dawley rats. Briefly: Pain from chemotherapeutic drugs: model with paclitaxel (von Frey, Hargreaves). The assay is classed as in vivo, rat. Conditions: P≦0.001. The protocol: One of the best validated models for testing this effect is that described hereunder; repeated administration of paclitaxel to rats. The animals (male Sprague Dawley rats weighing 250-300 g; Harlan, Italy) were treated with paclitaxel (2 mg/kg) administered intraperitoneally on alternate days (day 0,2,4,6). The behavioural tests for thermal and mechanical sensitivity were carried out on day 1 (the day following the first injection of paclitaxel), day 10, day 14 (7 days from the last injection), day 24 (peak severity of hyperalgesia and allodynia), day 30 and day 35 (day on which the animals were sacrificed). The animals (n=15) were divided into three experimental groups. The first group (A) received the treatment with paclitaxel, and was treated daily with […], 6 mg/kg by intraperitoneal injection from day 14 to day 35; the second group (B) treated with paclitaxel, was treated from day 14 to 35 with only the vehicle, and finally the third group consisted of naive animals (C). The results obtained are shown in the bar charts in FIGS. 18 and 19.

The test system of a further assay is C57BL/6 WT mice. Briefly: Allergic contact dermatitis (TNCB sensitization, ear thickness). Type of assay: in vivo, mouse. Conditions: 2 mg/kg injected locally in the auricle 4 hours before stimulus; FIG. 36. How it is done:
C57BL/6 WT mice are sensitized by applying, on day 0, 100 μl of 3% TNCB (2,4,6-trinitrochlorobenzene) in acetone, or only acetone as control, on the skin of the abdomen.
As stress, 20 μl of 1% TNCB is applied on the skin of the back of both ears on day 5. This stress causes an allergic reaction that is manifested as swelling and reddening. The thickness of the ear (symptom of swelling) is measured 24 hours after application of the stimulus, using callipers (Mitutoyo). […] was injected locally in the auricle at a dose of 2 mg/kg 4 hours before the […] stimulus.

Assay [2] deals with mice. Briefly: COPD: chronic smoke exposure (6 months), lung morphometry and histology. The assay is classed as in vivo, mouse. The note with it: smoke 6 months, 4 mg/kg i.p. before daily exposure. How it is done: The activity of […] was also tested in a model of chronic exposure, which is closer to the aetiology of the human disorder. The mice were exposed to the smoke of 3 cigarettes a day or air for 5 days a week for 6 months, and were treated 30 minutes before the daily exposure with […] 4 mg/kg i.p.
At the end of the 6 months, the mice were sacrificed and a morphometric and histologic examination was conducted on the lung tissue.
The mean interalveolar distance (Lm) and mean internal surface area of the lung (ISA) were measured, being parameters that are correlated with degeneration of lung tissue and with the resultant decrease in respiratory function.

As to `C=C(C=O)OC(C=O)n1cnc2c(N)ncnc21` (stereo not drawn) [2-[1-(6-aminopurin-9-yl)-2-oxoethoxy]prop-2-enal], the “mice that developed diabetes” value with female NOD mice is on record as “one out of 8”. The “visceral pain (number of contractions after acetic acid)” value in the assay with mice [1] was “effective in the treatment of visceral pain”. For the same molecule, in the assay with Sprague-Dawley (SD) rats (10 mg/kg i.p., FIG. 6), the “renal injury (histological damage score and organ functionality)” value is on record as “largely prevents renal injury”. The plasma creatinine levels entry in the assay on Sprague-Dawley (SD) rats (group 3, 10 mg/kg i.p. 30 minutes before ischaemia, 24 hours, group 1 = sham, FIG. 5) is “values much closer to those of group 1”. Further, the “threshold of mechanical sensitivity (von Frey)” value with male Sprague Dawley rats (group A, paclitaxel + IMMUFLAM 6 mg/kg i.p. daily from day 14, day 30, vehicle 11.85±0.61 s) was found to be 18.28 ± 0.65 s. Also, in the assay on male Sprague Dawley rats (paclitaxel + IMMUFLAM 6 mg/kg i.p. for twenty-one days (day 35), vehicle 5.82±0.18 s), the “threshold of thermal sensitivity (Hargreaves)” value came out at 10.21 ± 0.34 s. Moreover, the “allergic reaction (thickness of the ear)” value in the assay on C57BL/6 WT mice was “able to inhibit the allergic reaction”. In the assay on mice [2], the “ISA (mean internal surface area of the lung)” value came out at 1153 ± 59 cm^2 and the “Lm (mean interalveolar distance)” value is reported as 36.3 ± 1.1 μm.
